Test results taken from patent US20250332180A1, “CANNABINOIDS AND IL-15 ACTIVATE NK CELLS” (The Regents of the University of California, priority 2022, published 2025).

Assays:
[1] = tested on: OSCCs; test: Cell count of viable cells (Trypan Blue, light microscope); assay type: cell-based, human; conditions: WIN 55,212-2 10-100 μM, 24 hours
Excerpt: The number of viable cells was counted under light microscope using Trypan Blue staining. Compiled data from three independent experiments performed as shown.
The number of viable cells was counted under light microscope using Trypan Blue staining (Sigma, MO, USA).

[2] = tested on: OSCCs; test: Cell death assay (PI staining, flow cytometry); assay type: cell-based, human; conditions: 24 hours
Method: (§1) No differences between untreated tumor cells and those treated with the DMSO vehicle alone in cell count or the amount of cell death in OSCCs and OSCSCs. […] Proportion of the live cells that had lost forward and side scatter were determined indicating decreased viability of the cells. In addition, the numbers of viable cells were determined after PI staining followed by flow cytometric analysis (FIG. 2A). OSCC tumor cells were treated as in FIG. 2A and the cells were analyzed by flow cytometry to determine the proportion of the live cells that had lost forward and side scatter indicating decreased viability of the cells (FIG. 2B) and the numbers of viable OSCC tumor cells were determined after PI staining followed by flow cytometric analysis (FIG. 2C). […] PI staining was used to determine the cell death by flow cytometry. One of four representative experiment is shown in (FIG. 2D). The compiled data of paired OSCCs and OSCSCs at the same concentration of WIN 55,212-2 treatment from four experiments is shown in (FIG. 2E). Four experiments were compiled and the % cell death of tumor cells by various WIN 55-212,2 concentrations (10, 25, 50 and 100 μM) were compared to the untreated control for both OSCC (FIG. 2F) and OSCSC (FIG. 2G). […] Non-linear regression was used to fit the curve of the % cell death induced by WIN 55-212,2 in various concentrations (10, 25, 50 and 100 μM) for both OSCC and OSCSC. […] The differences were clear within each independent experiment.
(§2) PI staining was used to determine the cell death by flow cytometry. Compiled data from four independent experiments performed is shown.

[3] = tested on: OSCSCs; test: Cell death assay (PI staining, flow cytometry); assay type: cell-based, human
Method: as §1, §2

[4] = tested on: MP2 tumor cells; test: Cell death assay (PI staining, flow cytometry); assay type: cell-based, human; conditions: 25-100 μM, 24-48 hours
Method: PI staining was used to determine the cell death by flow cytometry. One of two representative experiments is shown in (FIG. 4A) and the compiled data of paired MP2 and PL-12 at the same concentration of WIN 55,212-2 treatment is shown in (FIG. 4B). […] Two experiments were compiled and the % cell death of various WIN 55-212,2 concentration (10, 25, 50 and 100 μM) was compared to the untreated control for both PL12 (FIG. 4C) and MP2 (FIG. 4D). […] Non-linear regression was used to fit the curve of the % cell death induced by WIN 55-212,2 in various concentrations (10, 25, 50 and 100 μM) for both PL12 and MP2 (FIG. 4E).
PI staining was used to determine the cell death by flow cytometry. Compiled data from two experiments is shown.

[5] = tested on: MP2 tumor cells
[6] = tested on: tumors; conditions: cited from earlier work

Q: Which “decrease in cell numbers” value [1] does the source give for CS(=O)(=O)O.Cc1c(C(=O)c2cccc3ccccc23)c2cccc3c2n1[C@H](CN1CCOCC1)CO3 [WIN 55,212-2, (R)-(+)-[2,3-Dihydro-5-methyl-3-(4-morpholinylmethyl)pyrrolo[1,2,3-de]-1,4-benzoxazin-6-yl]-1-naphthalenylmethanone mesylate] here?
A: 10-25%

Q: What about the “cell death (PI staining)” value ([2]; 75 and 100 μM) of the same molecule?
A: up to 10%

Q: What about the “forward scatter/side scatter (size of cells, early apoptosis)” value ([2]; different concentrations) of the same molecule?
A: significant dose dependent decrease

Q: And the “amounts of cell death in OSCSCs compared with those induced by CDDP” value ([3]; 25-100 μM)?
A: either similar or higher

Q: And the “cell death (PI staining) compared with OSCCs” value ([3]; all concentrations tested, 24 hours)?
A: higher cell death

Q: And the “percentages of dead cells (PI staining)” value [4]?
A: approximately 30%

Q: And the “cell surface expression of CD44” value ([5]; 48 h, 25-100 μM)?
A: Decreased cell surface expression

Q: What about the “cell surface expression of CD54” value ([5]; 48 h, 25-100 μM) of the same molecule?
A: decreased the expression

Q: What about the “cell surface expression of MHC class I” value ([5]; 48 h, 25-100 μM) of the same molecule?
A: decreased on MP2 tumor cells

Q: What about the “cell surface expression of PD-L1” value ([5]; 48 h, 25-100 μM) of the same molecule?
A: decreased in MP2 tumor cells

Q: What about the “extent of decrease in all surface receptor expressions, MP2 compared with PL-12” value ([5]; after WIN 55,212-2 treatments) of the same molecule?
A: significantly greater

Q: What about the “migration and invasion of tumors” value ([6]; previously reported in several studies) of the same molecule?
A: inhibiting

Q: What about the “anti-tumor effect, mechanism” value ([6]; previously reported) of the same molecule?
A: inducing caspase-independent apoptosis
